Laboratory results published in patent US20030125321A1, “Methods and compositions for treating respiratory pathologies” (priority 2001, published 2003).

Test system: male Wistar rats
Experiment: Pulmonary paracellular permeability to 125I labelled human serum albumin after intratracheal Pseudomonas aeruginosa LPS
Type: in vivo, rat
Experimental: Pulmonary permeability was measured by means of a tracer, ^125I -labelled human serum albumin which, after intratracheal infusion, was determined in urine, plasma, lung tissue and bronchoalveolar lavage fluid.
For this experiment, three groups of 6 male Wistar rats (200-225 g) were pretreated either with ML-7 by the IP route (3 mg/kg then 1 mg/kg 3 times a day for 48 h) or the vehicle (ethanol 10%). One hour after the next-to-last administration of ML-7, under urethane anesthesia ([…] IP), a slow intratracheal infusion of 150 μl of an iso-osmolar solution (5% bovine albumin +PBS) containing the tracer and containing (2 groups) or not containing (control group) LPS (1 μg/rat) was given.
Four hours after the intratracheal infusion, urine, blood, bronchoalveolar lavage (BAL) and lungs were harvested and ^125I radioactivity was measured on each sample.

- effect on vascular endothelial cells (endothelium permeability, tone, pulmonary circulating hemodynamics) (inferred from unchanged plasma radioactivity): does not present effect
Structure (SMILES): O=S(=O)(c1cccc2c(I)cccc12)N1CCCNCC1 [ML-7, 1-(5-iodonaphtalene-1-sulfonyl)-1H-hexahydro-1,4-diazepine]
- LPS-induced increase in pulmonary permeability (ML-7 pretreatment IP 3 mg/kg then 1 mg/kg 3 times a day for 48 h): inhibited
